Square brackets hold non-standard residues; d marks the D form. Peptide text beside a SMILES is read from it. * marks the point of attachment. NMeV = CN[C@H](C(=O)O)C(C)C; X1 = C#CCCC/C(=C\C(=O)*)OC; X2 = C#CCCCC(=O)CC(=O)*
Experiments:
Format in all cases: functional
[1] = test system: HT-29; assay: Cytotoxicity against human HT29 cells after 48 hrs by MTT assay; conditions: HT-29, 48 h
[2] = test system: U2OS; assay: Cytotoxicity against human U2OS cells after 48 hrs by MTT assay
[3] = test system: IMR-32; assay: Cytotoxicity against human IMR32 cells after 48 hrs by MTT assay; conditions: IMR-32, 48 h

Compound	GI50 [1]	GI50 [2]	GI50 [3]
C#CCCC/C(=C\C(=O)N(C)[C@H](C(=O)N(C)[C@H](C(=O)N(C)[C@H](C(=O)N(C)[C@H](C(N)=O)C(C)C)C(C)C)C(C)C)C(C)C)OC [DRAGONAMIDE C] (X1-[NMeV][NMeV][NMeV][NMeV]-NH2)	22 µM	56 µM	49 µM
C#CCCCC(=O)CC(=O)N(C)[C@H](C(=O)N(C)[C@H](C(=O)N(C)[C@H](C(=O)N(C)[C@H](C(N)=O)C(C)C)C(C)C)C(C)C)C(C)C [DRAGONAMIDE D] (X2-[NMeV][NMeV][NMeV][NMeV]-NH2)	32 µM	59 µM	51 µM
